Data from patent publication US20260109664A1, “COMPOUNDS FOR USE AS MEDICAMENTS” (priority 2022, published 2026).

How the values were obtained:
[1] = tested on: C. difficile 630Δerm; test: Toxicity growth curves (OD590 nm) of C. difficile monoculture in minimal media; assay type: cell-based, Clostridioides difficile; conditions: 8-hour growth curve; for effect on the growth of C. difficile (growth curve, OD590 nm): compound 6.6 mM in MM with 1% DMSO, FIGS. 1a to 5b
Description: (§1) Compounds EX1 to EX5 were separately tested to determine their toxicity to C. difficile and E. coli.
(§2) Each compound was dissolved to 6.6 mM in minimal media (MM) with 1% DMSO based on the MM described by Cartman et al. in Appln. Environ. Microbiol, 2010, 76, 1103 and the concentration was matched in a 1:1 ratio of the compound to the substrate p-HPA.
(§3) To determine growth rates of C. difficile and E. coli in the presence of compounds EX1 to EX5, three colonies of C. difficile or three colonies of E. coli were used to inoculate a primary culture of 10 mL MM in 50 cm^3 vented tissue culture flasks (Thermo Scientific). Following overnight incubation on a shaking platform at 50 rpm, the primary culture was back diluted in MM to OD590 nm 0.5 using a Fisherbrand™ Digital Colorimeter model 4.5 (Fisher Scientific). 1 ml of the OD590 nm 0.5 culture was inoculated into 10 ml of MM in 50 cm^3 vented tissue culture flasks with and without 4-hydroxyphenylacetic acid and the relevant compound (EX1 to EX5).
(§4) OD590 nm readings were determined every hour for eight hours using a Fisherbrand™ Digital Colorimeter model 4.5 (Fisher Scientific).
(§5) Growth curves denoting growth over an 8-hour time period for C. difficile and E. coli in MM with the presence of 4-hydroxyphenylacetic acid and inhibitors EX1 to EX5, each at 6.6 mM. Absorbance was measured at OD590 nm. *p<0.05, **p<0.01, samples represent a minimum of three biological replicates graphed in GraphPad prism (v9). Raw absorbance was normalised using a blank MM control.

[2] = tested on: E. coli; test: Toxicity growth curves (OD590 nm) of E. coli monoculture in minimal media; assay type: cell-based, Escherichia coli; conditions: compound 6.6 mM in MM with 1% DMSO, 8-hour growth curve, FIGS. 1a to 5b
Description: as §1, §2, §3, §4, §5

[3] = tested on: production of 4-methylphenol by C. difficile; test: HPLC of C. difficile monocultures: 4-methylphenol (p-cresol) production; assay type: cell-based, Clostridioides difficile; conditions: 630Δerm, 8 hours, 1.5 mg/ml p-HPA with matched 6.6 mM compound, normalised to OD590 nm, FIG. 14
Description: C. difficile monocultures were established in the presence of the following compounds EX1, EX3, EX5 and EX8.
Samples of 630Δerm were collected following growth in minimal media with 1% DMSO v/v for 8 hours with 1.5 mg/ml p-HPA with matched (6.6 mM) concentrations of compounds EX1, EX3, EX5 and EX8. At the time of sample collection, the OD590 nm of the culture was measured. Samples were immediately filter sterilised using 0.22 μm filters, then frozen at −80° C. prior to HPLC analysis.
The filter-sterilized samples were transferred to HPLC vials and analysed immediately by injecting onto the HPLC column. Separations were achieved by utilizing an Acclaim 120 (Thermofisher), C18, 5 μm (4.6×150 mm), with the mobile phase consisting of ammonium formate (10 mM, pH 2.7) and […] (v/v; 50:50) at a flow rate of 1400 μl/min. p-HPA and p-cresol were detected by the diode array detector (PDA; DAD 3000) set at 280 nm. Peak identity was confirmed by measuring the retention time of commercially available p-HPA and p-cresol, and determination of absorbance spectra was performed using the DAD. A calibration curve of each compound was generated by Chromeleon (Dionex software) using known amounts of the reference standards (0-5 mg/ml) dissolved in media and injected onto the column, and the amount of p-HPA and p-cresol in the samples was determined. Samples from three independent biological replicates were analysed compared to media controls and standard curves. The limit of detection for p-HPA and p-cresol are 0.001 and 0.0005 mg/ml, respectively. The p-cresol concentration was normalised to growth by using the OD590 nm measured at the time of sample collection.

[4] = tested on: production of 4-methylphenol by C. difficile; test: HPLC of C. difficile / E. coli co-culture: 4-methylphenol production; assay type: cell-based, Clostridioides difficile; conditions: 630Δerm and E. coli co-culture, no normalisation to OD590 nm, FIG. 15
Description: A C. difficile 630Δerm and E. coli co-culture was established (as per the methods previously described) in the presence of compound EX3.
Following co-culture, CFU assays were undertaken to determine relative survival of C. diff and E. coli. The remaining sample was filter sterilised (0.22 μm filters), then frozen at −80° C. prior to the HPLC analysis. HPLC analysis was carried out as described above (HPLC monocultures) with the exception of there being no normalisation of the 4-methylphenol concentration to OD590 nm.

[5] = tested on: E. coli; test: Co-culture of C. difficile and E. coli, CFU percentages: E. coli; assay type: cell-based, Escherichia coli; conditions: MM + 6.6 mM p-HPA + 6.6 mM inhibitor, 1% DMSO, 14 hours co-culture, FIGS. 7 to 13
Description: (§6) Compounds EX1 to EX7 were tested to determine their ability to reduce the growth of C. difficile relative to E. coli.
(§7) C. difficile 630Δerm and E. coli were grown overnight in MM. C. difficile was back diluted to an OD590 nm of 0.2. 18 μl of the back dilution was added to 1.8 ml of the test conditions: MM, MM+6.6 mM p-HPA, MM+6.6 mM inhibitor, and MM+6.6 mM p-HPA+6.6 mM inhibitor, in a 24 well plate. Each inhibitor was dissolved in DMSO such that the final concentration in the 24 well plate was 1% v/v. C. difficile was grown for 8 hours before E. coli underwent back dilution to an OD590 nm of 0.2 and 18 μl was inoculated into the C. difficile wells to give the co-culture. The co-culture was grown for 14 hours. The proportion of the co-cultures made up by C. difficile and E. coli were determined by colony-forming units per millilitre (CFU/ml) assays with co-cultures plated on to BHIS plates in duplicate with selective media for each species. C. difficile was selected for using cycloserine (250 mg/l) and cefoxitin (8 mg/l) whilst E. coli was selected for using vancomycin (4 mg/l). […] CFUs were counted on the following day. CFU data is presented using CFU percentages which were calculated by dividing the number of CFUs for each species by the total number of CFUs for both E. coli and C. difficile and multiplying by 100. […] Data was analysed by linear regression carried using Stata17.

[6] = tested on: C. difficile 630Δerm; test: Co-culture of C. difficile and E. coli, CFU percentages: C. difficile; assay type: cell-based, Clostridioides difficile; conditions: MM + 6.6 mM p-HPA + 6.6 mM inhibitor, 1% DMSO, 14 hours co-culture, FIGS. 7 to 13
Description: as §6, §7

SMILES	effect on the growth of C. difficile (growth curve, OD590 nm) [1]	effect on the growth of E. coli (growth curve, OD590 nm) [2]	production of 4-methylphenol by C. difficile (HPLC, monoculture) [3]	other results
NC(=O)Cc1ccc(O)cc1 [EX1]	no effect on the growth	inhibited the growth	reduced	
OCCc1ccc(O)cc1 [EX2]	toxic	toxic		
N#CCc1ccc(O)cc1 [EX3]		inhibited the growth	reduced	effect on the growth of C. difficile when both compound and p-HPA present ([1]; compound 6.6 mM + p-HPA 6.6 mM (1:1) in MM): inhibited the growth; production of 4-methylphenol by C. difficile (HPLC, co-culture with E. coli) [4]: reduced
O=C(O)CCc1ccc(O)cc1 [EX4]	no effect on the growth			
O=C(O)c1ccc(O)cc1 [EX5]	no effect on the growth	no effect on the growth	reduced	
CC(C)(C(=O)O)c1ccc(O)cc1 [EX6]				impact on the growth of E. coli in co-culture with C. difficile [5]: little or no negative impact; inhibition of the growth of C. difficile in co-culture with E. coli (CFU percentage) [6]: able to inhibit the growth
O=C(O)Cc1ccc(O)cc1 [EX7]				impact on the growth of E. coli in co-culture with C. difficile [5]: little or no negative impact; inhibition of the growth of C. difficile in co-culture with E. coli (CFU percentage) [6]: able to inhibit the growth
COC(=O)Cc1ccc(O)cc1 [EX8]			reduced	
